Structures can show the parent of a compound that is named as a salt.
| Compound | melting point [°C] |
| --- | --- |
| O=C(NCc1ccc2c(c1)OCCC2O)c1cccnc1Oc1cccnc1 (stereo not shown) [Example 41, N-(4-Hydroxy-chroman-7-ylmethyl)-2-(pyridin-3-yloxy)-nicotinamide] | 134 to 136 |
| NS(=O)(=O)N1CCC(CNC(=O)c2cccnc2Oc2ccc(F)cc2)CC1 [Example 194, 2-(4-Fluoro-phenoxy)-N-(1-sulfamoyl-piperidin-4-ylmethyl)-nicotinamide] | 225 to 226 |
| CC(=O)c1ccc(CNC(=O)c2cccnc2Oc2ccc(F)cc2)cc1 [Example 285, N-[4-Acetyl-benzyl)-2-(4-fluoro-phenoxy)-nicotinamide] | 106 to 108 |
| COC(=O)c1ccc(CNC(=O)c2cccnc2Oc2cccnc2)cc1 [Example 37, 4-({[2-(Pyridin-3-yloxy)-pyridine-3-carbonyl]-amino}-methyl)-benzoicacid methyl ester] | 125 to 127 |
| C[C@@H](NC(=O)c1cccnc1Oc1ccc(F)cc1)c1cccs1 [Example 7, (R)(+)2-(4-Fluoro-phenoxy)-N-(1-thiophen-2-yl-ethyl)-nicotinamide] | 60 to 62 |
| CC(C)(O)c1ccc(CNC(=O)c2cccnc2Oc2cccc([N+](=O)[O-])c2)cc1 [Example 107, N-[4-(1-Hydroxy-1-methyl-ethyl)-benzyl]-2-(3-nitro-phenoxy)-nicotinamide] | 43 to 45 |
| CC(O)C1CCC(CNC(=O)c2cccnc2Oc2ccc(F)c(C#N)c2)CC1 (single isomer, unassigned; (-)) [Example 320, (−)-2-(3-Cyano-4-fluoro-phenoxy)-N-[4-(1-hydroxy-ethyl)-cyclohexylmethyl]-nicotinamide] | 134 to 135 |
| O=C(Nc1cccc(Oc2ncccc2C(=O)NCc2ccccc2Cl)c1)Nc1cccc2ccccc12 [Example 139, N-(2-Chloro-benzyl)-2-[3-(3-naphthalen-1-yl-ureido)-phenoxy]-nicotinamide] | 121 to 123 |
| O=C(NCc1ccccc1Cl)c1cccnc1OCc1cccnc1 [Example 246, N-(2-Chloro-benzyl)-2-(pyridin-3-ylmethoxy)-nicotinamide] | 91 to 93 |
| CS(=O)(=O)Nc1ccc(CNC(=O)c2cccnc2Oc2ccc(F)cc2)cc1 [Example 131, 2-(4-Fluoro-phenoxy)-N-(4-methanesulfonylamino-benzyl)-nicotinamide] | 107 to 109 |
| CC(C)(O)c1ccc(CNC(=O)c2cccnc2Oc2ccc3ncsc3c2)cc1 [Example 301, 2-(Benzothiazol-6-yloxy)-N-(4-(1-hydroxy-1-methyl-ethyl)-benzyl)-nicotinamide] | 195 to 197 |
| NC(=O)c1cccc(Oc2ncccc2C(=O)NCc2ccccc2Cl)c1 [Example 289, 2-(3-Carbamoyl-phenoxy)-N-(2-chloro-benzyl)-nicotinamide] | 153 to 155 |
| Cc1ccc(CNC(=O)c2cccnc2Oc2cncc(Cl)c2)cc1 [Example 48, 2-(5-Chloro-pyridin-3-yloxy)-N-(4-methyl-benzyl)-nicotinamide] | 119 to 121 |
| CC[C@@H](C)NC(=O)c1cccnc1Oc1cccnc1 [Example 177, (R)-N-sec-Butyl-2-(pyridin-3-yloxy)-nicotinamide] | 55 to 56 |
| O=C(CCc1c(F)cc(F)cc1F)c1cccnc1Oc1ccc(F)cc1 [Example 255, 1-[2-(4-Fluoro-phenoxy)-pyridin-3-yl]-3-(2,4,6-trifluoro-phenyl)-propan-1-one] | 84 to 85 |
| Cc1noc2ccc(Oc3ncccc3C(=O)NCc3ccc(C(C)(C)O)cc3)cc12 [Example 316, N-(4-(1-Hydroxy-1-methyl-ethyl)-benzyl)-2-(3-methyl-benzo(d)-isoxazol-5-yloxy)-nicotinamide] | 128 to 130 |
| COc1cccc(Oc2ncccc2C(=O)NCc2ccccc2Cl)c1 [Example 283, N-(2-Chloro-benzyl)-2-(3-methoxy-phenoxy)-nicotinamide] | 71 to 74 |

Second part, the molecule after the results:

| melting point [°C] | Compound |
| --- | --- |
| 118 to 120 | O=C(NCc1ccccc1Cl)c1cccnc1Oc1ccc(F)cc1 [Example 9, N-(2-Chloro-benzyl)-2-(4-fluoro-phenoxy)-nicotinamide] |
| 134 to 136 | O=C(NCc1sccc1Cl)c1cccnc1Oc1ccc(F)cc1 [Example 69, N-(3-Chloro-thiophen-2-ylmethyl)-2-(4-fluoro-phenoxy)-nicotinamide] |
| 133 to 135 | CC(=O)c1cc(Cl)cc(Oc2ncccc2C(=O)NC[C@H]2CC[C@H](C(C)(C)O)CC2)c1 [Example 308, 2-(3-Acetyl-5-chloro-phenoxy)-N-(trans-4-(1-hydroxy-1-methyl-ethyl)-cyclohexylmethyl)-nicotinamide] |
| 78 to 80 | CC(C)(O)c1ccc(CNC(=O)c2cccnc2Oc2cncc(Cl)c2)cc1 [Example 59, 2-(5-Chloro-pyridin-3-yloxy)-N-[4-(1-hydroxy-1-methyl-ethyl)-benzyl]-nicotinamide] |
| 64 to 65 | CC[C@H](C)NC(=O)c1cccnc1Oc1cccnc1 [Example 176, (S)-N-sec-Butyl-2-(pyridin-3-yloxy)-nicotinamide] |
| 169 to 170 | O=C(c1cc2ccccc2[nH]1)c1cccnc1Oc1ccc(F)cc1 [Example 269, [2-(4-Fluoro-phenoxy)-pyridin-3-yl]-(1H-indol-2-yl)-methanone] |
| 91 to 93 | O=C(NCc1ccc(OC(F)F)cc1)c1cccnc1Oc1cccnc1 [Example 27, N-(4-Difluoromethoxy-benzyl)-2-(pyridin-3-yloxy)-nicotinamide] |
| 105 to 107 | O=C(NCC1CC1)c1cccnc1Oc1cncc(Cl)c1 [Example 98, 2-(5-Chloro-pyridin-3-yloxy)-N-cyclopropylmethyl-nicotinamide] |
| 196 to 198 | C[C@H](NC(=O)c1cccnc1Oc1cccnc1)c1cccs1 (as salt: HCl) [Example 46, (S)(+)-2-(Pyridin-3-yloxy)-N-(1-thiophen-2-yl-ethyl)-nicotinamide] |
| 45 to 47 | CC(C)(C)c1cc(CNC(=O)c2cccnc2Oc2ccc(F)cc2)cc(C(C)(C)C)c1O [Example 76, N-[3,5-Di-tert-butyl-4-hydroxy-benzyl)-2-(4-fluoro-phenoxyl)nicotinamide] |
| 115 to 117 | O=C(NCc1ccccc1Cl)c1cccnc1Oc1cccc(F)c1 [Example 11, N-(2-Chloro-benzyl)-2-(3-fluoro-phenoxy)-nicotinamide] |
| 94 to 95 | CC(C)(O)c1ccc(CNC(=O)c2cccnc2Oc2ccc3c(c2)OCO3)c(F)c1 [Example 327, 2-(Benzo[1,3]dioxol-5-yloxy)-N-[2-fluoro-4-(1-hydroxy-1-methyl-ethyl)-benzyl]-nicotinamide] |
| 98 to 100 | O=C(NCc1ccc(OCC(F)(F)F)cc1)c1cccnc1Oc1cccnc1 [Example 25, 2-(Pyridin-3-yloxy)-N-[4-(2,2,2-trifluoro-ethoxy)-benzyl]-nicotinamide] |
| 68 to 70 | CC(C)(O)c1ccc(CNC(=O)c2cccnc2Oc2cc(F)cc(F)c2)cc1 [Example 238, 2-(3,5-Difluoro-phenoxy)-N-[4-(1-hydroxy-1-methyl-ethyl)-benzyl]-nicotinamide] |
| 80 to 82 | O=C(NCc1ccc(Cl)o1)c1cccnc1Oc1cccnc1 [Example 23, N-(5-Chloro-furan-2-ylmethyl)-2-(pyridin-3-yloxy)-nicotinamide] |
| 196 to 197 | NS(=O)(=O)c1ccc(CNC(=O)c2cccnc2Oc2cccnc2)cc1 [Example 178, 2-(Pyridin-3-yloxy)-N-(4-sulfamoyl-benzyl)-nicotinamide] |
| 95 to 97 | CCC(O)(CC)c1ccc(CNC(=O)c2cccnc2Oc2ccc(F)cc2)s1 [Example 80, N-[5-(1-Ethyl-1-hydroxy-propyl)-thiophen-2-ylmethyl]-2-(4-fluoro-phenoxy)-nicotinamide] |
| 157 to 159 | O=C1CCC(CNC(=O)c2cccnc2Oc2ccc(F)cc2)CC1 [Example 286, 2-(4-Fluoro-phenoxy)-N-(4-oxo-cyclohexylmethyl)-nicotinamide] |
| 128 to 130 | CC(=O)Nc1ccc(CNC(=O)c2cccnc2Oc2ccc(F)cc2)cc1 [Example 124, N-(4-Acetylamino-benzyl)-2-(4-fluoro-phenoxy)-nicotinamide] |
| 165 to 166 | NS(=O)(=O)N1CCC(CNC(=O)c2cccnc2Oc2cccnc2)CC1 [Example 179, 2-(Pyridin-3-yloxy)-N-(1-sulfamoyl-piperidin-4-ylmethyl)-nicotinamide] |
| 73 to 75 | O=C(Cc1ccccc1Cl)Nc1cccnc1Oc1ccc(F)cc1 [Example 136, 2-(2-Chloro-phenyl)-N-[2-(4-fluoro-phenoxy)-pyridin-3-yl]-acetamide] |
| 160 to 162 | O=C(NCc1cc2ccccc2s1)c1cccnc1Oc1cncc(Cl)c1 [Example 56, N-Benzo[b]thiophen-2-ylmethyl-2-(5-chloro-pyridin-3-yloxy)-nicotinamide] |
| 85 to 87 | CC(C)(O)c1cc(Cl)c(CNC(=O)c2cccnc2Oc2ccc(F)cc2)s1 [Example 84, N-[3-Chloro-5-(1-hydroxy-1-methyl-ethyl)-thiophen-2-ylmethyl]-2-(4-fluoro-phenoxy)-nicotinamide] |
